pIC50: −log10 of the molar value.
Key:
[1] = biological target: T1, TRPC5:C5 (Homo sapiens, UniProt Q9UL62); assay: [Ca2+]i recordings (Fura-2), TRPC5:C5 in HEK T-REx cells; type: cell-based; details: for pIC50: HEK T-REx, 30 min preincubation
T1 construct: expressed in transfected cells; host or cells: HEK T-REx (tetracycline-induced)
T1 sequence (Q9UL62 1-973): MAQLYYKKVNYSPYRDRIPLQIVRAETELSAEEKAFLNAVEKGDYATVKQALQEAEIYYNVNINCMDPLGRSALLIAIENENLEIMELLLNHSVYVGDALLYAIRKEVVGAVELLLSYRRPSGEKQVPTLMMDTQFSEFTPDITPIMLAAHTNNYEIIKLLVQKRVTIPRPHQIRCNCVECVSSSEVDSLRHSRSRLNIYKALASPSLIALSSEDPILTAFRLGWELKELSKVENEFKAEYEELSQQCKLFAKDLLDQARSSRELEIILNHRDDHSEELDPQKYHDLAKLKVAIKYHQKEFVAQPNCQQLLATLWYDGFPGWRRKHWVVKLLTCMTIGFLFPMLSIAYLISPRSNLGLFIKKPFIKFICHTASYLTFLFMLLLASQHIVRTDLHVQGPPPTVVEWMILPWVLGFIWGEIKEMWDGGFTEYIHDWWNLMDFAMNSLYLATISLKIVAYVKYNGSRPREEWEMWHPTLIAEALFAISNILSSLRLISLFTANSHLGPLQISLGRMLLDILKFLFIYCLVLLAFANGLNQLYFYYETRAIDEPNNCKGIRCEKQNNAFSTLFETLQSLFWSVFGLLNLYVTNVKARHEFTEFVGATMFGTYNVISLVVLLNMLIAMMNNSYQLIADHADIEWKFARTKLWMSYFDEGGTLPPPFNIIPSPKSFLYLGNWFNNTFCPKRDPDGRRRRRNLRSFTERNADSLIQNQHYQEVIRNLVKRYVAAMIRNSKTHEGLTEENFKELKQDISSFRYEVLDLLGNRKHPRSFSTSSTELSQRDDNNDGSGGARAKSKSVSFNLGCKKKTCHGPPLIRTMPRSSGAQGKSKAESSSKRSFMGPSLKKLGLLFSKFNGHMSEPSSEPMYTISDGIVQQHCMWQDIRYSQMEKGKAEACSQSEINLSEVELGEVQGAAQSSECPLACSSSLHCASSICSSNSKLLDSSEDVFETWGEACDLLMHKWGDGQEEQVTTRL
Procedure: Based on the findings described above, we wondered whether AC1903—which is typically used as a TRPC5 inhibitor at concentrations of 30–100 μM in cellular assays ([29], [56])—might have limited selectivity for TRPC5 channels and whether its effect on intracellular G418 levels and PTC readthrough might be the consequence of inhibition of other or multiple targets. All well-characterized TRPC channel inhibitors reported to date modulate multiple TRP(C) channels ([34], [35], [36]). […] Because limited data for the selectivity of AC1903 are available in the public domain, we decided to profile AC1903 against a selection of calcium-permeable cation channels by intracellular calcium ([Ca^2+]i) recordings using well-characterized cell lines and TRP channel activators ([46], [57], [58]), and the Ca^2+ indicator Fura-2. In these assays, cells (HEK 293, HEK T-REx, or CHO) overexpressing the relevant ion channel protein and loaded with Fura-2 AM (a cell-permeable precursor of Fura-2) were preincubated with various concentrations of AC1903 or vehicle (DMSO) for 30 min. Then, changes in ratiometric fluorescence (from background) were recorded upon addition of the respective ion channel activator.
Figure 4 AC1903 inhibits multiple TRP channels.A and C, representative [Ca^2+]i measurements from a single 96-well plate (N = 6; mean ± SD over technical replicates) showing inhibition of EA-mediated [Ca^2+]i responses by 0.1 to 100 μM AC1903 in (Tet+) HEK T-REx cells expressing TRPC5 (A) or TRPC4 (C). B and D, concentration–response data for experiments in (A) and (C) (scatter plots showing normalized data for three independent experiments; n/N = 3/18). Responses were calculated at 250 to 295 s compared to [Ca^2+]i at baseline (0–55 s). E and G, representative [Ca^2+]i measurements from a single 96-well plate (N = 6; mean ± SD over technical replicates) showing inhibition of OAG-mediated [Ca^2+]i responses by 0.1 to 100 μM AC1903 in (Tet+) HEK T-REx cells expressing TRPC3 (E) and WT HEK 293 cells transiently expressing TRPC6 (G). F and H, concentration–response data for experiments in (E) and (G) (scatter plots showing normalized data for three independent experiments; n/N = 3/18). Responses were calculated at 90 to 110 s compared with [Ca^2+]i at baseline (0–55 s). I, representative [Ca^2+]i measurements from a single 96-well plate (N = 6; mean ± SD over technical replicates) showing inhibition of the 4α-PDD-mediated [Ca^2+]i response by 0.1 to 100 μM AC1903 in CHO cells stably expressing TRPV4. J, concentration–response data for experiments in (I) (scatter plot showing normalized data for three independent experiments; n/N = 3/18). Responses were calculated at 290 to 300 s compared with [Ca^2+]i baseline (0–55 s). EA, (-)-englerin A; TRPC, transient receptor potential canonical. […]

[2] = test system: standard kinase panel; parameters: method as in PMID 29217578; details: cited from earlier work

SMILES: c1ccc(Cn2c(NCc3ccco3)nc3ccccc32)cc1 [AC1903]
- pIC50 ([1]; activator EA (30 nM)): 4.74
- pIC50 ([1]; activator S1P (10 μM)): 5.46
- Hill slope ([1]; activator EA (30 nM)): -1.8
- Hill slope ([1]; activator S1P (10 μM)): -1.6
- off-target effects in a standard kinase panel [2]: no off-target effects were found

— paper PMC8808171, “Nonselective TRPC channel inhibition and suppression of aminoglycoside-induced premature termination codon readthrough by the small molecule AC1903” (The Journal of Biological Chemistry, 2022)
